Data on 17 compounds can be found in ChEMBL document CHEMBL2346647, “Identification and characterization of small molecule inhibitors of signal transducer and activator of transcription 3 (STAT3) signaling pathway by virtual screening” (Bioorg Med Chem Lett, 2013).

In general, inhibition refers to the change of the read-out against control, counted positive when it falls. The term IC50 denotes the midpoint of a concentration-inhibition curve.

The source made the active and inactive calls. No cut-off for these calls is given here.

Assay [1] relates to HepG2. Put plainly: Effect on SRC protein level in human HepG2 cells pretreated at 50 uM for 48 hrs prior to IL-6 stimulation by Western blot analysis. Type of assay: functional, cell-based. (In western blotting, separated proteins are transferred to a membrane and probed.)
The test system of assay [2] is HepG2. Put plainly: Effect on JAK2 protein level in human HepG2 cells pretreated at 50 uM for 48 hrs prior to IL-6 stimulation by Western blot analysis. Type of assay: functional, cell-based.
Assay [3] addresses Tyrosine-protein kinase JAK2 (Homo sapiens) (UniProt O60674). Put plainly: Effect on JAK2 in human HepG2 cells pretreated at 50 uM for 48 hrs prior to IL-6 stimulation by Western blot analysis. Type of assay: cell-based.
In assay [4] the target is T1, Signal transducer and activator of transcription 1-alpha/beta (Homo sapiens) (UniProt P42224).
T1 sequence (whole entry): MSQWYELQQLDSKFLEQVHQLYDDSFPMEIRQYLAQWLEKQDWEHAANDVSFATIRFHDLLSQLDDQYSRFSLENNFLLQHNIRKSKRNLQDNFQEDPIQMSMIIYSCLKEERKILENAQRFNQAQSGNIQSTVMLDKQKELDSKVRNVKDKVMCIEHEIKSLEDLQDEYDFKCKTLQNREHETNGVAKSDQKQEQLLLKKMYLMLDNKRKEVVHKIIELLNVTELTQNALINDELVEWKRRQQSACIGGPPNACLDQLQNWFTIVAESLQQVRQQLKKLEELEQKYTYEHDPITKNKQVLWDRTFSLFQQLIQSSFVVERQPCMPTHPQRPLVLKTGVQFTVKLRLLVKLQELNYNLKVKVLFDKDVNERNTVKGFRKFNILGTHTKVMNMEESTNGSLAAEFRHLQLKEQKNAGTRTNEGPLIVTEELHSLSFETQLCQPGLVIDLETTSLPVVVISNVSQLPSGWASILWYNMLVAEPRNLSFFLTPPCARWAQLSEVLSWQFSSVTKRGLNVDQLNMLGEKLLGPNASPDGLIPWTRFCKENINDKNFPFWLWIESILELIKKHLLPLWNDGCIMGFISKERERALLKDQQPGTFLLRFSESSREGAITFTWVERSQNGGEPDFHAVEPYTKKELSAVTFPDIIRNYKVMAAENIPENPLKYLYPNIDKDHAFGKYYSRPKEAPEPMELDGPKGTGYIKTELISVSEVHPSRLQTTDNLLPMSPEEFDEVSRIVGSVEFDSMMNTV
Put plainly: Inhibition of IFN-gamma-induced STAT1 (unknown origin) at 10 uM.

Assay [5] deals with Signal transducer and activator of transcription 3 (Homo sapiens) (UniProt P40763). Kind of assay: Inhibition of IL-6-induced STAT3 pathway in human HepG2 cells at 10 uM by luciferase reporter gene assay. Type of assay: cell-based. On the technique in general: In a reporter assay the amount or activity of a reporter protein is the signal.
For assay [6], the system named is MDA-MB-468. Kind of assay: Cytotoxicity against human MDA-MB-468 cells assessed as inhibition of cell viability at 10 uM. Type of assay: functional.
Assay [7] deals with MDA-MB-468. Put plainly: Cytotoxicity against human MDA-MB-468 cells assessed as inhibition of cell viability. Type of assay: functional, cell-based.
The test system of assay [8] is HepG2. Kind of assay: Effect on total STAT3 protein level in human HepG2 cells pretreated for 6 hrs prior to IL-6 stimulation by Western blot analysis. Format: functional, cell-based.
Assay [9] deals with Proto-oncogene tyrosine-protein kinase Src (Homo sapiens) (UniProt P12931). Put plainly: Effect on SRC in human HepG2 cells pretreated at 50 uM for 6 to 48 hrs prior to IL-6 stimulation by Western blot analysis. Format: cell-based.
For assay [10], the target named is Signal transducer and activator of transcription 3 (Homo sapiens) (UniProt P40763). Put plainly: Inhibition of IL-6-induced STAT3 phosphorylation at Tyr705 residue in human HepG2 cells pretreated at 50 uM for 6 to 48 hrs prior to IL-6 stimulation by Western blot analysis. Type of assay: cell-based.
For assay [11] the target is unchanged. Kind of assay: Inhibition of IL-6-induced STAT3 phosphorylation at Tyr705 residue in human HepG2 cells pretreated for 6 to 48 hrs prior to IL-6 stimulation by Western blot analysis. Format: cell-based.

Signal transducer and activator of transcription 3 (Homo sapiens), sequence (P40763 whole entry): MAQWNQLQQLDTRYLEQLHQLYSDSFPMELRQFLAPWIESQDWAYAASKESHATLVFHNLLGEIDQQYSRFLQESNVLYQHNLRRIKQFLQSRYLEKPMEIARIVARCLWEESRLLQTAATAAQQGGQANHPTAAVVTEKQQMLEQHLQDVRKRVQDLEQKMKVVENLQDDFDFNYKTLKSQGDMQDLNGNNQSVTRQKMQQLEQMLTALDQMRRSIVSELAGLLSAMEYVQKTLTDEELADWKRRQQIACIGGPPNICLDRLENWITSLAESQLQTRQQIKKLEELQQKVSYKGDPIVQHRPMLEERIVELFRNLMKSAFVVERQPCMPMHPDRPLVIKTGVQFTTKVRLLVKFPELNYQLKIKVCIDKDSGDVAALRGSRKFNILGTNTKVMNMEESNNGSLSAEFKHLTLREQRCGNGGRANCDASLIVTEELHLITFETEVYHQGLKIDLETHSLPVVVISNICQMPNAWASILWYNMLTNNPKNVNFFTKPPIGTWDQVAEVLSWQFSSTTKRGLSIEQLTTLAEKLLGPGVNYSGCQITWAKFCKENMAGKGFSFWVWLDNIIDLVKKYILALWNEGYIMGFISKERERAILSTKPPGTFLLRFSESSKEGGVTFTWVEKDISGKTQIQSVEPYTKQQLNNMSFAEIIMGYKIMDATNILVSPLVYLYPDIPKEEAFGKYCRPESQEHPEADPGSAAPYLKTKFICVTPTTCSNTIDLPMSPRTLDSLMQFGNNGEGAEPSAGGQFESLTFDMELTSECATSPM
Tyrosine-protein kinase JAK2 (Homo sapiens), sequence (O60674 whole entry): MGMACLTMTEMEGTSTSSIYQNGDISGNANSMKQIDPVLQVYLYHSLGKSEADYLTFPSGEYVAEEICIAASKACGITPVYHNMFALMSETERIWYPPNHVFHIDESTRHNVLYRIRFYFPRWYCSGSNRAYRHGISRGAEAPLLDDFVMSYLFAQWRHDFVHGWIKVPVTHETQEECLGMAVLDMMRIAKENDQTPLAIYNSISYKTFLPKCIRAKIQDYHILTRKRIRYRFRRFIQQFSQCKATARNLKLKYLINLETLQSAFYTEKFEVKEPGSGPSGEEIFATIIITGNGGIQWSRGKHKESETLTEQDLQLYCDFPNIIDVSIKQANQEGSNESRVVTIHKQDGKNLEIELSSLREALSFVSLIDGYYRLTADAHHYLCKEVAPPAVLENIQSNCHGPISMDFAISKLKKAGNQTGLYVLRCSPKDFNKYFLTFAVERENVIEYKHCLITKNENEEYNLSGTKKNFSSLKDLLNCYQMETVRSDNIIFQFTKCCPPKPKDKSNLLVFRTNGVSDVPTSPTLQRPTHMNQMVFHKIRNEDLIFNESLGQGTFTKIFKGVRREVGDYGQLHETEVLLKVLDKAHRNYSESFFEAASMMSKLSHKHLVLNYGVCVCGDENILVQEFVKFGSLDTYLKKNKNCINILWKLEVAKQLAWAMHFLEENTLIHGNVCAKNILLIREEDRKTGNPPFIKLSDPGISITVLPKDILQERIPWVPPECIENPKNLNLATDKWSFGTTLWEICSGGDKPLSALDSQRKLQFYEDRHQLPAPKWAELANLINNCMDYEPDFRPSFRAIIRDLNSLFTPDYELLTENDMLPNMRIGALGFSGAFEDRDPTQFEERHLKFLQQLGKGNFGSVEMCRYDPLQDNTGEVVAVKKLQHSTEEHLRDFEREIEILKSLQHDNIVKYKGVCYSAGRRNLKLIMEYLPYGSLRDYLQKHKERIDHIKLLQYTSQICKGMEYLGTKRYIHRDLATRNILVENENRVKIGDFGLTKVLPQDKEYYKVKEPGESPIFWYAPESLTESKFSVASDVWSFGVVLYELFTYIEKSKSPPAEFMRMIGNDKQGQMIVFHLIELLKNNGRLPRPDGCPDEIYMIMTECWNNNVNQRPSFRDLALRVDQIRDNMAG
Proto-oncogene tyrosine-protein kinase Src (Homo sapiens), sequence (P12931 2-536 limits assumed): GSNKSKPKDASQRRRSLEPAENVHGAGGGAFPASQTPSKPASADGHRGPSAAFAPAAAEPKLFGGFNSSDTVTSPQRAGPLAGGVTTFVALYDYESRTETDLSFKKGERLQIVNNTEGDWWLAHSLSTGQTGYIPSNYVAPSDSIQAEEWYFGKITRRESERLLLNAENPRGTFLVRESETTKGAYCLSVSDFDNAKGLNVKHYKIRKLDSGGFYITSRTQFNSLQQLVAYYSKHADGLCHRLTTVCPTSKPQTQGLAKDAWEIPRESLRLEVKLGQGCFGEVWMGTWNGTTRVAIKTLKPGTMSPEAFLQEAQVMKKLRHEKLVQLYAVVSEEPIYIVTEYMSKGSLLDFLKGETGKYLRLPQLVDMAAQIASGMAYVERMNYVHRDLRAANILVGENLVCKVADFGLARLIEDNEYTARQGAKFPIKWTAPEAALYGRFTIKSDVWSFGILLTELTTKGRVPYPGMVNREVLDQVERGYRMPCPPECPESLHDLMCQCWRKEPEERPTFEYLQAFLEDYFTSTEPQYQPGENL

Consider `Oc1ccc(NCc2cc(Cl)ccc2OCc2ccc(Cl)cc2)cc1`, for which the outcome (with HepG2 [1]; in the assay with HepG2 [2]; in assay [3]; in the assay with HepG2 [8]; in assay [9]) was inactive. In addition, the inhibition in [4] was determined as 14.3%; in assay [5], 44.9%. The inhibition at 10 µM in the assay with MDA-MB-468 [6] is 46.8%. For the same compound, the IC50 in the assay on MDA-MB-468 [7] was 18.8 µM. The inhibition entry in [10] is “Active”.

For the compound `CC(O)CNCc1c(OCc2ccccc2Cl)ccc2ccccc12` (stereo not drawn), the inhibition at 10 µM in the assay with MDA-MB-468 [6] is 14.9%.

As for `COc1cc(/C=C/C(=O)CC(=O)/C=C/c2ccc(O)c(OC)c2)ccc1O` [CURCUMIN], the inhibition is 41% in assay [5] and “Dose-dependent effect” in assay [11]. The inhibition at 10 µM in the assay with MDA-MB-468 [6] was determined as 3.88%.

In the case of `C#CCOc1ccc(Cl)cc1CNc1ccccc1Cl`, the inhibition at 10 µM in the assay with MDA-MB-468 [6] worked out at 15.5%.

Take `COc1ccc(Cl)cc1CNCc1ccc2c(c1)OCO2`: the inhibition in assay [5] was -6.39%. Besides, the inhibition at 10 µM with MDA-MB-468 [6] is -4.03%.

As to `Clc1ccc(COc2ccccc2CNCc2ccccn2)cc1`, the inhibition in assay [5] was found to be 15.6%. Further, in the assay on MDA-MB-468 [6], the inhibition at 10 µM is 18.9%.

Consider `NC(=O)COc1ccc(Cl)cc1CNCCN1CCOCC1`, for which the inhibition in assay [5] is 3.63%. For the same compound, the inhibition at 10 µM with MDA-MB-468 [6] is -2.61%.

Regarding `NC(=O)COc1ccc(Cl)cc1CNCc1ccc(F)cc1`, the inhibition in assay [5] amounted to 1.69%. Besides, the inhibition at 10 µM in the assay on MDA-MB-468 [6] stood at 54.8%.

Regarding `NS(=O)(=O)c1ccc(NCc2cc(Cl)ccc2OCc2ccccc2)cc1`, the result (with HepG2 [1]; in the assay with HepG2 [2]; in [3]; with HepG2 [8]; in assay [9]) was inactive. Also, in assay [5], the inhibition amounted to 42.1%. Moreover, the inhibition at 10 µM in the assay with MDA-MB-468 [6] amounted to 27.7%. For the same compound, the half-maximal inhibitory concentration (IC50) in the assay with MDA-MB-468 [7] is 28.3 µM. The inhibition result in assay [10] was “Active”.

As to `O=C(O)c1ccc(CNCc2ccccc2OCc2ccccc2)cc1`, the inhibition in assay [5] is -8.72%. For the same compound, the inhibition at 10 µM with MDA-MB-468 [6] is -10.8%.

Consider `Clc1ccc(OCc2ccccc2Cl)c(CNCc2ccccc2)c1`, for which the inhibition in [5] turned out to be 36.6%. The inhibition at 10 µM in the assay on MDA-MB-468 [6] was determined as 10.7%.

In the case of `OCCNCc1cc(Br)ccc1OCc1ccc(Cl)cc1`, the inhibition in assay [5] was 33.2%. Further, in the assay on MDA-MB-468 [6], the inhibition at 10 µM was 26.6%. Further, the IC50 in the assay with MDA-MB-468 [7] came out at 23 µM.

Take `Fc1ccc(COc2ccc(Cl)cc2CNCC2CCNCC2)cc1`: in the assay with MDA-MB-468 [6], the inhibition at 10 µM was found to be 38.8%.

Turning to `NC(=O)COc1ccc(Cl)cc1CNCCc1ccccc1`, the inhibition in assay [5] was found to be 14.3%. Further, the inhibition at 10 µM in the assay with MDA-MB-468 [6] is -8.1%.

Regarding `Cc1cccc(NCc2cc(Br)ccc2OCc2ccc(Cl)cc2)c1C`, the inhibition in [5] was determined as 34.5%. For the same compound, the inhibition at 10 µM in the assay on MDA-MB-468 [6] is -2.03%.

Regarding `COCCNCc1ccc(OCc2cc(Cl)cc(Cl)c2)cc1`, the inhibition in [5] worked out at 20.2%. Besides, the inhibition at 10 µM in the assay on MDA-MB-468 [6] is 16.4%.

Take `Fc1ccc(COc2ccc(Cl)cc2CNCC2CCCO2)cc1` (stereo not drawn): the inhibition in assay [5] was determined as 27.8%. Moreover, the inhibition at 10 µM in the assay on MDA-MB-468 [6] was 27.5%.
